From patent publication EP1124556B1, “USE OF OPTICALLY PURE (R)-TOFISOPAM FOR TREATING AND PREVENTING ANXIETY DISORDERS” (priority 1998, dated 2000)
Where “and” joins values, the source holds several entries; their conditions need not be identical. Equal entries are not always repeated.

Assays:
[1] = Conformer interconversion in solution; format: physicochemical
Protocol: The enantiomers of tofisopam were resolved by chiral chromatography. For example, tofisopam (42.8mg dissolved in acetonitrile) was loaded onto a Chirobiotic V column (ASTEC, Whippany, NJ). Elution of the compounds with MTBE/ACN 90/10 (v/v), 40ml/min, was monitored at 310nm, 2mm path. The R(+) enantiomer was the first compound to elute from the column. The R(+) enantiomer was collected, dried and stored for use in biological assays. R(-)-tofisopam ("A" ' ) , S (-/+) tofisopam ("B" and "B' ") , and residual R(+)-tofisopam ("A") co-eluted and was collected in a subsequent fraction (e.g., FIG. 1, fraction 2). Approximately 20% of the R(+)-tofisopam in fraction 1 is converted into R(-)-tofisopam if left in solution for 24 hours. A 80/20 stable equilibrium (R+/R-) was observed between the two conformers in MTBE/ACN (90/10) solution at room temperature.

site II of HSA = site II of HSA (Homo sapiens, UniProt P02768); details: cited from earlier work
site II of HSA, sequence (P02768 25-609): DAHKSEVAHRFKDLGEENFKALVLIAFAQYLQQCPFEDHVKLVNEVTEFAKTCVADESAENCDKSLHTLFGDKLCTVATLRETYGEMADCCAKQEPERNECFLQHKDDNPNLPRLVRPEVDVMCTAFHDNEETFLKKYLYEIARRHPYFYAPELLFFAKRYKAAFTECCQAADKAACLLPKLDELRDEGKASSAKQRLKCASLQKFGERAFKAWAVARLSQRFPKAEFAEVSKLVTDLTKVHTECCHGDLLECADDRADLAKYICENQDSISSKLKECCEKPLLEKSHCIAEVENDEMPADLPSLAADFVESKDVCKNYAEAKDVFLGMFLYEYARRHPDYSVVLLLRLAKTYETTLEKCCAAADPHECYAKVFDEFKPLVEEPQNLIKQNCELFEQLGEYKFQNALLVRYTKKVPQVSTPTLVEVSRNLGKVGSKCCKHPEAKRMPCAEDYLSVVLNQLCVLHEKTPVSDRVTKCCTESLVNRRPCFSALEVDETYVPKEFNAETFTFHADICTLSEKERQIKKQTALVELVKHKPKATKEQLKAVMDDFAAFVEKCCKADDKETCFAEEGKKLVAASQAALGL

dopamine (D2L) receptor = dopamine (D2L) receptor (Homo sapiens, UniProt P14416); experiment: Dopamine receptor binding (preliminary results)
dopamine (D2L) receptor, sequence (P14416 whole entry): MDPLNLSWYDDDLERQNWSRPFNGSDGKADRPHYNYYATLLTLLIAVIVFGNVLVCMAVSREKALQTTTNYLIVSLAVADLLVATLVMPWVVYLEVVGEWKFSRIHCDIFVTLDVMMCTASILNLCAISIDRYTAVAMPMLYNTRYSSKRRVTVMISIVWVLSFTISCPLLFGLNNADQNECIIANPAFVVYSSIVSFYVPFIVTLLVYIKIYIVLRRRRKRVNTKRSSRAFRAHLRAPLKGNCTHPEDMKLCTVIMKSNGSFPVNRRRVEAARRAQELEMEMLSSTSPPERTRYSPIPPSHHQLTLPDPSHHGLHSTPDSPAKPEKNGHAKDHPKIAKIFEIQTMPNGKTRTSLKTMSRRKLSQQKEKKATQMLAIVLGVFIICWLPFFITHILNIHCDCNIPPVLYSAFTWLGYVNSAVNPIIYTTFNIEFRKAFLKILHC

Male Long Evans rats = experiment: Head-twitch response assay (potentiation of 5-MeODMT-induced head-twitches) for anxiolytic activity; format: in vivo; design: Score: scale not given here; details: for Head Twitch: one hour before interperitoneal 3mg/kg 5-MeODMT, number of head-twitches over 1-5 minute period post injection, individual rats No. 1-3; for Score: group of 3 rats
Protocol: Dry preparations of tofisopam, R-tofisopam or S-tofisopam were dissolved in 2% Tween 80/5% DMSO for oral administration in a blind assay. Diazepam (Sigma, U.S.A.) was similarly dissolved in DMSO (Merck, Germany), distilled water and Tween 80 (Wako Pure Industries, Ltd., Japan).
Male Long Evans rats provided by animal breeding center of MDS Panlabs Taiwan, Ltd., were used. Space allocation for animals was as follows: 45 x 23 x 15 cm for 6 rats. Rats were housed in APEC® (Allentown Gaging, Allentown, NJ 08501, U.S.A.) cages in a positive pressure isolator (NuAire® , Mode: Nu-605, airflow velocity 50± 5 ft/min, HEPA Filter). All animals were maintained in a controlled temperature (22°C - 24°C) and humidity (60% - 80%) environment with 12 hours light dark cycles for at least one week in MDS Panlabs Taiwan laboratory prior to being used. Free access to standard lab chow for rats (Fwusow Industry Co., Limited, Taiwan) and tap water was granted. All aspects of this work including housing, experimentation and disposal of animals were performed in general accordance with the International Guiding Principles for Biomedical Research Involving Animals (CIOMS Publication No. ISBN 92 90360194, 1985).
Moser, P.C., "The Effect of Novel Axiolytics on the Head-Twitch Response in Mice" British J. Pharmacol Suppl. 99:248P (1990) . Based on those assays, test substances were administered orally to the rats one hour before interperitoneal injection of 3mg/kg 5-MeODMT. The number of head-twitches over a 1-5 minute period post injection were recorded (Table 1).

[2] = in vivo; cited from earlier work
benzodiazepine receptor = details: cited from earlier work
patients = details: cited from earlier work
[3] = cited from earlier work

CC[C@H]1C(C)=NN=C(c2ccc(OC)c(OC)c2)c2cc(OC)c(OC)cc21 [R(+)-tofisopam]
stable equilibrium (R+/R-) ([1]; MTBE/ACN (90/10) solution at room temperature): 80/20
converted into R(-)-tofisopam ([1]; left in solution for 24 hours): Approximately 20%

N[C@@H](Cc1c[nH]c2ccccc12)C(=O)O [L-Tryptophan]
affinity for site II of HSA relative to the other enantiomer (site II of HSA): about 100 times

CC[C@H]1C(C)=NN=C(c2ccc(OC)c(OC)c2)c2cc(OC)c(OC)cc21 [R-tofisopam, R-1-(3,4-dimethoxyphenyl)-5-ethyl-7,8-dimethoxy-4-methyl-5H-2,3-benzodiazepine]
side effects related to binding to the dopamine (D2L) receptor (dopamine (D2L) receptor): cannot manifest side effects related to binding to the dopamine (D2L) receptor
Head Twitch (Male Long Evans rats; PO 30 mg/kg): 0 and 2 and 1
Score (Male Long Evans rats; PO 30 mg/kg): 1

CCC1C(C)=NN=C(c2ccc(OC)c(OC)c2)c2cc(OC)c(OC)cc21 (racemic) [tofisopam, 1-(3,4-dimethoxy-phenyl) - 4-methyl-5-ethyl-7,8-dimethoxy-5H-2,3-benzodiazepine]
anticonvulsive, muscle relaxant or sedative effects [2]: not have anticonvulsive, muscle relaxant or sedative effects
Head Twitch (Male Long Evans rats; PO 30 mg/kg): 0
Score (Male Long Evans rats; PO 30 mg/kg): 0
binding to the benzodiazepine receptor (benzodiazepine receptor): does not bind to the benzodiazepine receptor
binding of BDZs to their receptors (benzodiazepine receptor; in vivo and in vitro, after acute and chronic treatment): enhances the binding of BDZs to their receptors
patients reporting side effects during treatment (patients; double-blind study, 4 weeks, 57 outpatients with anxiety and depression): twenty-one
anxiolytic effect (patients; multicenter study, 325 patients, 3 weeks, 150-1300 mg/day): effective anxiolytic

CC[C@@H]1C(C)=NN=C(c2ccc(OC)c(OC)c2)c2cc(OC)c(OC)cc21 [S-tofisopam]
Head Twitch (Male Long Evans rats; PO 30 mg/kg): 0
Score (Male Long Evans rats; PO 30 mg/kg): 0

O=C1CCC(N2C(=O)c3ccccc3C2=O)C(=O)N1 (racemic) [racemic thalidomide]
solubility relative to its separate isomers [3]: ten times less soluble

CN1C(=O)CN=C(c2ccccc2)c2cc(Cl)ccc21 [Diazepam]
Head Twitch (Male Long Evans rats; PO 10 mg/kg): 5 and 1 and 9
Score (Male Long Evans rats; PO 10 mg/kg): 2
